Legend:
[1] = system: Gram+ and Gram- bacteria (S. aureus, E. coli, E. faecalis, P. aeruginosa); test: Antibiotic activity, summary over the bacterial strains (Examples 3 and 7); format: cell-based; design: activity against Gram+ and Gram− bacteria: dose or concentration left out as unconfirmed; key to Antibiotic activity: low: Weak antibiotic activity on only 1 of the 3 bacterial strains (i.e. S aureus); high: Strong antibiotic activity on all 3 bacterial strains; Significant antibiotic activity on two bacterial strains
Description: Bacterial strains used in this study were: S. aureus (ATCC25923), E. coli (ATCC25922), E. faecalis (ATCC29212) and P. aeruginosa (PA01). Strains were maintained at −80° C. in 15% (v/v) glycerol for cryoprotection. Bacteria were routinely grown in Mueller-Hinton (MH) broth at 37° C.
The susceptibility of bacterial strains to antibiotics and compounds was determined in microplates using the standard broth dilution method in accordance with the recommendations of the Comité de 1′Antibiogramme de la Société Française de Microbiologie (CA-SFM). (Members of the SFM Antibiogram Committee, R. Int. J. Antimicrob. Agents 2003, 21, 364). Briefly, the Minimal Inhibitory Concentrations (MICs) were determined with an inoculum of 10^5 CFU in 200 μL of MH broth containing two-fold serial dilutions of each drug. […] To determine all MICs, the measurements were independently repeated in triplicate.
The compound of formula (Ia) according to the invention was tested against clinical isolates Gram-bacteria (P. aeruginosa, E. coli) and Gram+ bacteria (S. aureus, E. faecalis). Minimum inhibitory concentrations (MIC) were tentatively determined and compared to known antibiotic tetracyclines (doxycycline, demeclocycline, chlortetracycline) and to the compound of formula (B) disclosed in Example 1 of the present application. The test was reproduced twice and the average MIC were calculated.
(§1) The properties of tetracycline derivatives, including the compound of formula (Ia) according to the present invention, were compared regarding the neuroprotection, anti-inflammatory effects, anti-aggregant activity, and antibiotic activity. The properties were evaluated as described herein above.
(§2) EC50s, IC50s determined graphically, *Rescue of dopamine neurons from spontaneous oxidative stress; ** TNF α release inhibition under LPS exposure, ^#Weak antibiotic activity on only 1 of the 3 bacterial strains (i.e. S aureus). ##Strong antibiotic activity on all 3 bacterial strains. ^###Significant antibiotic activity on two bacterial strains.

alpha-synuclein = alpha-synuclein (Homo sapiens, UniProt P37840); test: alpha-synuclein aggregation, thioflavin T (ThT) fluorescence; format: biochemical
Description: The antiaggregant effect of the compound of formula (Ia) according to the present invention on alpha-synuclein (αS) was evaluated in vitro by measuring the fluorescence intensity of the probe thioflavin T (ThT), a molecule that specifically binds to cross-β structures characteristic of amyloid-like aggregation. The compound of formula (Ia) was dissolved in dimethylsulfoxide to reach a concentration of […]. In this assay, 70 μM of alpha-synuclein was incubated with and without 10 μM, 20 μM and 50 μM of the compound of formula (Ia), under orbital agitation (600 rpm), at 37° C., for 5 days. After the incubation time, Tht was added to each sample and changes in the emission fluorescence spectra (λex=450 and λem=[…]) was monitored using a Horiba Fluoromax CP4 spectrofluorometer.

[2] = Brain penetration after single subcutaneous injection; format: in vivo; conditions: mouse, brain and serum, sc; 40 mg/kg single subcutaneous injection, Swiss mice, 30 min to 24 h, n=3; read-out: brain-to-plasma ratio calculated from the area under the concentration time curves
Description: Adult Swiss mice received a single subcutaneous injection of 40 mg/kg of the compound of formula (Ia) according to the present invention, the compound of formula (C), or doxycycline diluted in saline with 5% DMSO and 5% Tween 80 (doxycycline was used as a reference tetracycline). The mice were sacrificed 30 min, 1 h, 8 h, and 24 h after treatment. After sacrifice, brain and serum samples were collected and processed at each time point for tetracycline dosage, using an UHPLC system coupled with a triple quadrupole mass spectrometer LCMS-8030 (Shimadzu Corporation, Kyoto, Japan).

[3] = system: dopaminergic neurons (TH+ neurons); test: Neuroprotection: rescue of dopamine neurons from spontaneous oxidative stress in primary cultures; format: cell-based; conditions: for EC50: Neuron, rescue of dopamine neurons from spontaneous oxidative stress, determined graphically, read-out: Neuroprotection (EC 50 μM)
Description: In primary cultures of dopaminergic neurons, TH+ neurons suffer from oxidative stress, leading to the death of the neurons after a few days. When cultured in the presence of a positive reference (apotransferrin), the dopaminergic neurons survive. The neuroprotective effects of 10 μM of doxycycline (DOX) and of 3 μM or 5 μM of the compound of formula (Ia) according to the present invention were evaluated, compared to the effect of 100 μg/mL of apotransferrin (APO).
as §1, §2

[4] = system: microglia cells (TNF α release under LPS); test: Anti-inflammatory effect in microglia, TNF α release inhibition under LPS exposure; format: cell-based; conditions: for Anti inflammatory effects (IC 50 in μM): TNF α release inhibition under LPS exposure, determined graphically
Description: Microglia is in charge of the protection of the neurons. However, under stress conditions, microglia cells are responsible of inflammatory phenomena, leading eventually to the death of the neurons. The anti-inflammatory effects of 5 μM and 20 μM of compound of formula (B) presented in Example 1, of 5 μM and 20 μM of compound of formula (Ia) according to the present invention and of 50 μM of doxycycline (DOX) were evaluated, compared to the effect of 2.5 μM of dexamethasone (DEX). Microglia is in charge of the protection of the neurons. However, under stress conditions, microglia cells are responsible of inflammatory phenomena, leading eventually to the death of the neurons. The anti-inflammatory effects of 10 μM and 20 μM of compound of formula (C) (“10 μM (C)” and “20 μM (C)”) and of 10 μM and 20 μM of compound of formula (Ia) according to the present invention (“10 μM (Ia)” and “20 μM (Ia)”) were evaluated, compared to the effect of 2.5 μM of dexamethasone (“DEX”). The properties of tetracycline derivatives, including the compound of formula (Ia) according to the present invention, were compared regarding the neuroprotection, anti-inflammatory effects, anti-aggregant activity, and antibiotic activity. The properties were evaluated as described herein above. EC50s, IC50s determined graphically, *Rescue of dopamine neurons from spontaneous oxidative stress; ** TNF α release inhibition under LPS exposure, ^#Weak antibiotic activity on only 1 of the 3 bacterial strains (i.e. S aureus). ##Strong antibiotic activity on all 3 bacterial strains. ^###Significant antibiotic activity on two bacterial strains.

[5] = 10 μM and 20 μM, compared to dexamethasone 2.5 μM

inhibition of alpha-synuclein aggregation (ThT fluorescence) (alpha-synuclein; 10 μM, 20 μM and 50 μM compound, 70 μM alpha-synuclein, 37° C., 5 days, vs control, dose dependent)	Anti aggregant activity at 20 μM (alpha-synuclein)	Kp [2]	EC50 [3]	Anti inflammatory effects (IC 50 in μM) [4]	SMILES	activity against Gram+ and Gram− bacteria [1]	neuroprotective effect ([3]; 3 μM and 5 μM, compared to apotransferrin 100 μg/mL)	anti-inflammatory effect (LPS) ([4]; 5 μM and 20 μM, superior to doxycycline 50 μM and compound of formula (B))	anti-inflammatory effect (LPS) [4, 5]	Antibiotic activity ([1]; summary over bacterial strains)
significantly inhibits	yes	0.21 ± 0.05	1.58 µM	yes	C[C@H]1c2cccc(O)c2C(=O)C2=C(O)C3C(=O)C(C(N)=O)=C(O)C[C@@H]3[C@@H](O)[C@@H]21 (stereo partly drawn) [Compound of formula (Ia), (4aS,5R,5aR,6R)-3,5,10,12-tetrahydroxy-6-methyl-1,11-dioxo-1,4,4a,5,5a,6,11,12a-octahydrotetracene-2-carboxamide]	did not show any activity	highly protective	counteracts inflammatory process	counteracts inflammatory process	–
–	yes	0.27 ± 0.13	0.81 µM	no	NC(=O)C1=C(O)CC2CC3C(=C(O)C2C1=O)C(=O)c1c(O)ccc(Cl)c1[C@H]3O (stereo partly drawn) [Compound of formula (C)]	–	–	–	unable to counteract the inflammatory process	low^#

— US20260021119A1, “TETRACYCLINE DERIVATIVES” (ICM (INSTITUT DU CERVEAU ET DE LA MOELLE ÉPINIÈRE), priority 2022, published 2026)
